Earlier results, collected in patent US20040109898A1, “Topical composition for heightened sensitivity” (priority 2002, published 2004).
Where two headings read alike, the source gives them in different places.

Assays:
[1] = cold, heat, cooking, freezing

solubility in alcohols, fats, and oils (alcohols, fats, and oils) | solubility in water (water) | Compound | Scoville Units rating (panel of individuals; individual capsaicinoid) | Scoville Unit (SU) rating (panel of individuals; pure, individual capsaicinoids) | detectable to the palate in dilutions of (palate) | stability / retention of potency [1] | Scoville Unit (SU) rating (panel of individuals)
very soluble | slightly soluble | COc1cc(CNC(=O)CCCC/C=C/C(C)C)ccc1O [Capsaicin, 8-methyl-N-vanillyl-6-(E)-nonenamide] | 16 million Scoville Units | 16 million SU | one to seventeen million | seemingly unaffected by cold or heat, which retains its original potency despite time, cooking, or freezing | –
– | – | COc1cc(CNC(=O)CCCCCCCC(C)C)ccc1O [Homodihydrocapsaicin, 9-methyl-N-vanillyl-decanamide] | – | 8.6 million SU | – | – | –
– | – | COc1cc(CNC(=O)CCCCC/C=C/C(C)C)ccc1O [Homocapsaicin, 9-methyl-N-vanillyl-7-(E)-decenamide] | – | – | – | – | 8.6 million SU
